Source: patent US20130137644A1, “CELL PENETRATING PEPTIDE CONJUGATES FOR DELIVERING OF NUCLEIC ACIDS INTO A CELL” (priority 2005, published 2013)

Assay: Body weight evolution, apparent toxicity during the efficacy experiment
Format: in vivo, NMRI nude mice
Conditions: 48.15 μmol/kg i.v. Q1D5; course of experiment 80 days
Procedure: Animal experiments were performed according to ethical guidelines of animal experimentation. The day of the first injection (6 days after the graft), mice were randomized in 7 groups. Mice were treated by intravenous injection in the lateral tail vein at a constant volume of 10 microL/g. Groups were as follows:
During the course of experiment body weight and tumor size were controlled every 2 or 3 days (except weekends). […] Mortality of animals was recorded every day except the weekend.
During the efficacy experiment, body weight was monitored twice weekly. Treatment toxicity was assessed based on clinical signs and body weight evolution.

CCc1c2c(nc3ccc(OC(=O)N4CCC(N5CCCCC5)CC4)cc13)-c1cc3c(c(=O)n1C2)COC(=O)[C@]3(O)CC [irinotecan, Irinotecan]
body weight loss: ~20%
